Assays:
[1] = system: Patients with type 2 diabetes at high risk for or with established cardiovascular disease; experiment: Dementia in pooled double-blind RCTs (LEADER, SUSTAIN-6, PIONEER 6), GLP-1 receptor agonist versus placebo; type: in vivo, human; settings: each RCT, active arm vs. placebo; for Dementia SMQ GLP-1 Receptor Agonists no. of events: median follow-up 3.8 years (LEADER), 2.1 years (SUSTAIN-6), 1.3 years (PIONEER 6)
Procedure: Exposure to GLP-1 receptor agonist and subsequent diagnosis of dementia was assessed in data sources with long term treatment exposure including three pooled double-blind randomized controlled trials (RCTs) and a nationwide cohort of patients with diabetes. This was done with the aim of investigating whether use of GLP-1 receptor agonists reduces the onset of dementia in patients with diabetes.
A triangulation approach integrating study designs and data sources with different key sources of potential bias was employed to obtain a more reliable answer. First, data was pooled from three large RCTs with GLP-1 receptor agonists; liraglutide (LEADER; 9,340 patients), subcutaneous semaglutide (SUSTAIN-6; 3,297 patients), and oral semaglutide (PIONEER 6; 3,183 patients). All three trials were multicenter, double-blind, placebo-controlled cardiovascular outcomes trials. Patients with type 2 diabetes at high risk for or with established cardiovascular disease were randomly assigned in a 1:1 ratio, to receive placebo or liraglutide (LEADER), or semaglutide (SUSTAIN-6; PIONEER 6) in addition to standard of care. In these trials, the treatment for diabetes (excluding GLP-1 receptor agonists, dipeptidyl peptidase-4 inhibitors (DPP4 inhibitors), and pramlintide) was adjusted or added in both arms, at the investigator's discretion, as previously described. The formulation tested in LEADER was an aqueous composition comprising liraglutide, disodium phosphate dihydrate, propylene glycol, and phenol at pH 8.15. The formulation tested in SUSTAIN-6 was an aqueous composition comprising semaglutide, disodium phosphate dihydrate, propylene glycol, and phenol at pH 7.4. The formulation tested in PIONEER was a tablet comprising semaglutide and SNAC. […]
For the pooled RCTs, an intention-to-treat analysis was performed using Cox regression with treatment assignment as the only explanatory variable to determine the hazard ratio for developing dementia with GLP-1 receptor agonists versus placebo. […] The incidence of dementia with death as competing risk was calculated using the Aalen-Johansen estimator.

[2] = system: microglial inflammatory marker Iba1 in the hippocampus; experiment: LPS-induced neuroinflammation in mice, Iba1 immunohistochemistry of the hippocampus; type: in vivo, mouse; settings: C57BL/6 mice, Day 28, LPS+semaglutide 30 nmol/kg s.c. once per day; mean, SEM 0.49%; LPS+vehicle 12.17%; p<0.01
Source text: LPS-induced neuroinflammation is used as a non-genetic model of Alzheimer's disease in rodents. LPS is an endotoxin from gram-negative bacteria that provides a persistent inflammatory stimulus activating brain immune cells (neuroimmune cells). Microglia are a brain immune cell type activated by LPS, and the degree of neuroinflammation can be assessed by the area of microglia in brain tissue as measured by the microglia-specific marker ionized calcium binding adaptor molecule 1 (Iba1).
Here, LPS-induced neuroinflammation in mice was used to assess the impact of semaglutide on attenuating brain inflammation in the hippocampus, a brain region involved in memory and learning which is deteriorated in Alzheimer's Disease.
The experiment was carried out using C57BL/6 mice at 8-10 weeks of age. […]
Immediately after termination, whole brains were collected for immunohistochemical (IHC) analyses of neuroinflammation markers. […] The primary antibody was detected using a linker secondary antibody followed by amplification using a polymeric HRP-linker antibody conjugate. […]
Quantitative assessment of Iba1 signal was performed to measure the area of microglia in the hippocampus of the tissue section. […] The quantitative estimates of IHC-positive staining were calculated as an area fraction (AF) of the total tissue area where: […]

SAMP8 mice [3] = experiment: Step-through passive avoidance test (long-term memory) in SAMP8 mice; type: in vivo, mouse; settings: SAMP8 mice at 18 weeks of age, retention test, 30 nmol/kg s.c. once a day, mean
Source text: (§1) Here, SAMP8 mice were utilized to characterize the impact of semaglutide treatment on memory deficits and cognitive decline. Two behavioural tests commonly used to assess cognitive deficits in rodents were employed to assay effects on short-term memory (Y-maze test) and long-term memory (step-through passive avoidance test). The Y-maze is test of short-term memory, assessing spatial working memory and exploratory behaviour by measuring spontaneous alternations, which is the frequency of entering a new arm of the maze rather than returning to one that was previously visited (described in methods). The step-through passive avoidance test measures associative long-term memory by assessing the learning of an association of an aversive stimulus to a particular context (described in methods). SAMP8 mice have measurable deficits in both tests as they age.
The experiment was carried out using SAMP8 mice with the following treatment groups: SAMP8 vehicle treated (n=24) and SAMP8 semaglutide (30 nmol/kg) treated (n=11). […]
The step through passive avoidance performance was performed at 18 weeks of age. […] The step-through latency was recorded up to 300 s, defined as the time it took the mouse to enter the darkened compartment during the retention test. Escape latency was as recorded, defined as the time in the retention test to escape the darkened chamber following the application of a footshock.

SAMP8 mice [4] = experiment: Y-maze test (short-term memory) in SAMP8 mice; type: in vivo, mouse; settings: SAMP8 mice at 16 weeks of age; 30 nmol/kg s.c. once a day; mean, SEM 1.6%; vehicle 42.8%; p<0.0001
Source text: as §1, with “age. […]” for “age.”
Testing in the Y-maze was performed at 8 weeks of age and 16 weeks of age, at approximately 15 and 71 days following treatment initiation respectively. […] The series of arm entries including possible returns into the same arm was monitored and alternation was defined as entries into all three arms on consecutive occasions. The number of maximum alternations was therefore the total number of arm entries minus two and the percentage of alternation was be calculated as (actual alternations/maximum alternations)×100.

## N-epsilon26-[2-(2-{2-[2-(2-{2-[(S)-4-Carboxy-4-(17-carboxyheptadecanoylamino)butyrylamino] ethoxy}ethoxy)acetylamino]ethoxy} ethoxy)acetyl][Aib8,Arg34]GLP-1-(7-37) [semaglutide]
[1]; listed as Semaglutide (oral)
  Dementia SMQ GLP-1 Receptor Agonists no. of events: 0
[1]; listed as Semaglutide (s.c)
  Dementia SMQ GLP-1 Receptor Agonists no. of events: 3
[1]; unit not printed in table (b13 gives pooled rates per 1000 patient-years)
  Dementia SMQ GLP-1 Receptor Agonists rate: 0.88
[2]
  hippocampal Iba1 area (area fraction): 8.53%
SAMP8 mice [3]; SEM 3.0 seconds, vehicle 88.8 seconds, p=0.01
  escape latency: 19.0 s
SAMP8 mice [3]; SEM 14.5 seconds, vehicle 109.8 seconds, p<0.0001
  step-through latency: 260.5 s
SAMP8 mice [4]
  percentage alternation behaviour in the Y-maze: 79.1%

Source: patent US12539326B2, “Methods for treating Alzheimer's disease using semaglutide” (Novo Nordisk A/S, priority 2019, dated 2026)
